Data as given in US10640488B2, “Antibacterial compounds” (AZIENDE CHIMICHE RIUNITE ANGELINI FRANCESCO A.C.R.A.F. …, priority 2016, dated 2020).

Experiments:
S. aureus DNA gyrase = S. aureus DNA gyrase (Staphylococcus aureus, UniProt P0A0K8+P20831); type: biochemical
E. coli DNA gyrase = E. coli DNA gyrase (Escherichia coli, UniProt P0AES4+P0AES6); type: biochemical
Sequence of E. coli DNA gyrase (P0AES4 whole entry, one chain of several): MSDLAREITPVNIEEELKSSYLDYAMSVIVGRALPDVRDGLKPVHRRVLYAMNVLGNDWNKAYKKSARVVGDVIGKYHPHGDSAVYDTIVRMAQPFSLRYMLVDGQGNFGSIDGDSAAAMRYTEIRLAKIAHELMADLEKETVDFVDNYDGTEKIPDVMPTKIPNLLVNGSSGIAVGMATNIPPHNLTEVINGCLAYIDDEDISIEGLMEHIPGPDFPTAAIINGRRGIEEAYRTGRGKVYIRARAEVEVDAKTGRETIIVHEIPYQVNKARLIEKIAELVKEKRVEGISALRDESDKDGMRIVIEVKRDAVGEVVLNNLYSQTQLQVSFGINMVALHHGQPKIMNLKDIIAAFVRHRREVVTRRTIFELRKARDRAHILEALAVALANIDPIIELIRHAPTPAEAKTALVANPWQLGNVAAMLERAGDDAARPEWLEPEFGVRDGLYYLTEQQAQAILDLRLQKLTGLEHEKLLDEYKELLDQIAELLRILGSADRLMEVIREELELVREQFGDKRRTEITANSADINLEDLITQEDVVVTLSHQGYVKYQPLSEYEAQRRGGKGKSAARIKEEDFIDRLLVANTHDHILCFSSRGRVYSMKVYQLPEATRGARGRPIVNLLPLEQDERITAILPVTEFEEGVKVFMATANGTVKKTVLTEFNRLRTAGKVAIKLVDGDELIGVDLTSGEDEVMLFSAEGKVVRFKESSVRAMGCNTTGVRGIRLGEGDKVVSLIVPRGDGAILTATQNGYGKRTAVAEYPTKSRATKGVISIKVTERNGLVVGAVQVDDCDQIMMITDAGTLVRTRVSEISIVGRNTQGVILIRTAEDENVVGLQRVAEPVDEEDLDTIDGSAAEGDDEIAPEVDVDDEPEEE

Sequence of S. aureus DNA gyrase (P20831 whole entry): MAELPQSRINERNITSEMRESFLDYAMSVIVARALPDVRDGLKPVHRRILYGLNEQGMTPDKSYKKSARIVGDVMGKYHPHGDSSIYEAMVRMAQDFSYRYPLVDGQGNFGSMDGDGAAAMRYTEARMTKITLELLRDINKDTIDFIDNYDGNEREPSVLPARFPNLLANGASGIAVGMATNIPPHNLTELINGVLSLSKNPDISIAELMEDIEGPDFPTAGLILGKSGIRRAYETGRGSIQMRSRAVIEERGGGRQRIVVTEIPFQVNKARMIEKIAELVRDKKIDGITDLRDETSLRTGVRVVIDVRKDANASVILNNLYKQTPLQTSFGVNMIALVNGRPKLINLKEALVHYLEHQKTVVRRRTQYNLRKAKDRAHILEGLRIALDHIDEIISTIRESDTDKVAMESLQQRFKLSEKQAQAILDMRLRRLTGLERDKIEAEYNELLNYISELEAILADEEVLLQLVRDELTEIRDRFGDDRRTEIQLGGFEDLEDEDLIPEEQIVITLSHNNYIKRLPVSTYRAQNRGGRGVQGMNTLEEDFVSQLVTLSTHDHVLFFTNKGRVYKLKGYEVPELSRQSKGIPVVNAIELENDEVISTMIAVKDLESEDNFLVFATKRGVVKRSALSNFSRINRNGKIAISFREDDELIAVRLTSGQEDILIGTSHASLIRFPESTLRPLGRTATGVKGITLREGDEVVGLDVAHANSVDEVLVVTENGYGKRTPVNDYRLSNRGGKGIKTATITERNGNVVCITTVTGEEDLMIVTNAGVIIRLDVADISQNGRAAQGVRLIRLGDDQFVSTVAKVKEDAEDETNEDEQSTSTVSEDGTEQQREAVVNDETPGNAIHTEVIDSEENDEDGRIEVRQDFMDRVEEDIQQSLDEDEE
Sequence of S. aureus DNA gyrase (P0A0K8 whole entry): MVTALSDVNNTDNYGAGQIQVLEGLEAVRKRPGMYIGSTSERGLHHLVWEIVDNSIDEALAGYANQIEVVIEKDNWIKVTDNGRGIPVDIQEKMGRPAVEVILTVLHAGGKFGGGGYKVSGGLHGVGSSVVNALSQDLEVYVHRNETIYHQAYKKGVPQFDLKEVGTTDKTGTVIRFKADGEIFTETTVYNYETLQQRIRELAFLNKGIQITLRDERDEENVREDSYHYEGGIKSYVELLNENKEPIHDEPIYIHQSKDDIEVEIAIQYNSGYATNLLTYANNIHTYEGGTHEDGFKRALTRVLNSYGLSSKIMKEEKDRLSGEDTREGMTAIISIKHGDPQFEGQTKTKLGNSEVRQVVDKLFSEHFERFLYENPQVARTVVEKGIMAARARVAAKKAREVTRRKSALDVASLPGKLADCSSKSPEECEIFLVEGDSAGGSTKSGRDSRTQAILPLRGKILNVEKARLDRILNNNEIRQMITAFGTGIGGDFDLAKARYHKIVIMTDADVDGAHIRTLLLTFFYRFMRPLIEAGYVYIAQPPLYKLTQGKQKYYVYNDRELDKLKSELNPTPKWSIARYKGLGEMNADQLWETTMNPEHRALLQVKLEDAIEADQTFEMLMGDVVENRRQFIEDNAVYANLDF

O=c1oc2ccccc2c2[nH]c(CNCC3CCN(c4nccc5ccc(F)cc45)C3)cc12 (single isomer, unassigned) [Compound 180, 2-[({[1-(7-fluoroisoquinolin-1-yl)pyrrolidin-3-yl]methyl}amino)methyl][1]benzopyrano[4,3-b]pyrrol-4(1H)-one]
S. aureus % inhibition DNA gyrase (S. aureus DNA gyrase): 90%
E. coli % inhibition DNA gyrase (E. coli DNA gyrase): 58%

O=c1oc2ccccc2c2[nH]c(CNCC3CN(c4nccc5ccc(F)cc45)CCO3)cc12 (single isomer, unassigned) [Compound 182, 2-[({[4-(7-fluoroisoquinolin-1-yl)morpholin-2-yl]methyl}amino)methyl][1]benzopyrano[4,3-b]pyrrol-4(1H)-one]
S. aureus % inhibition DNA gyrase (S. aureus DNA gyrase): 92%
E. coli % inhibition DNA gyrase (E. coli DNA gyrase): 61%
